This assay concerns the target T1, full length active recombinant SYK enzyme (Homo sapiens, UniProt P43405).
T1 construct: full length active recombinant SYK enzyme (Millipore, Calif.); purchased Millipore
Put plainly: Inhibition of Syk tyrosine phosphorylation activity (LANCE TR-FRET kinase assay). As to conditions: 1 nM active SYK enzyme, 550 nM SYK-substrate, 100 μM ATP, 1 hour at room temperature. Type of assay: biochemical.

The IC50 is the concentration that gives 50% inhibition. Turning to `NC(=O)c1nnc(N[C@@H]2CCOC[C@@H]2N)nc1Nc1cccc(-n2nccn2)c1` [Example 85, 5-((3-(2H-1,2,3-triazol-2-yl)phenyl)amino)-3-(((3R,4R)-3-aminotetrahydro-2H-pyran-4-yl)amino)-1,2,4-triazine-6-carboxamide], the IC50 fell in the range of 1 to 10 nM.

In the case of `CC[C@@H](Nc1nnc(C(N)=O)c(Nc2cccc(-n3nccn3)c2)n1)C(N)=O` [Example 86, (R)-5-((3-(2H-1,2,3-triazol-2-yl)phenyl)amino)-3-((1-amino-1-oxobutan-2-yl)amino)-1,2,4-triazine-6-carboxamide], the IC50 lay in the range of 100 to 1000 nM.

As for `CC(C)[C@@H](Nc1nnc(C(N)=O)c(Nc2cccc3c2ccn3C)n1)C(N)=O` [Example 87, (R)-3-((1-amino-3-methyl-1-oxobutan-2-yl)amino)-5-((1-methyl-1H-indol-4-yl)amino)-1,2,4-triazine-6-carboxamide], the IC50 lay in the range of 10 to 100 nM.

As to `CC(C)C[C@@H](Nc1nnc(C(N)=O)c(Nc2cccc3c2ccn3C)n1)C(N)=O` [Example 88, (R)-3-((1-amino-4-methyl-1-oxopentan-2-yl)amino)-5-((1-methyl-1H-indol-4-yl)amino)-1,2,4-triazine-6-carboxamide], the IC50 was 1 to 10 nM.

As to `Cn1ccc2c(Nc3nc(NCC4CCC(=O)N4)nnc3C(N)=O)cccc21` (stereo not drawn) [Example 89, 5-((1-methyl-1H-indol-4-yl)amino)-3-(((5-oxopyrrolidin-2-yl)methyl)amino)-1,2,4-triazine-6-carboxamide], the IC50 lay within 100 to 1000 nM.

As for `Cn1ccc2c(Nc3nc(N[C@@H]4CCNC4)nnc3C(N)=O)cccc21` [Example 90, (R)-5-((1-methyl-1H-indol-4-yl)amino)-3-(pyrrolidin-3-ylamino)-1,2,4-triazine-6-carboxamide], the 50% inhibitory concentration (IC50) was 1 to 10 nM.

Consider `Cn1ccc2c(Nc3nc(NCc4cc[nH]n4)nnc3C(N)=O)cccc21` [Example 91, 3-(((1H-pyrazol-3-yl)methyl)amino)-5-((1-methyl-1H-indol-4-yl)amino)-1,2,4-triazine-6-carboxamide], for which the IC50 was in the range of 100 to 1000 nM.

As to `NC(=O)c1nnc(N)nc1Nc1cccc(-c2ncccn2)c1` [Example 92, 3-amino-5-((3-(pyrimidin-2-yl)phenyl)amino)-1,2,4-triazine-6-carboxamide], the IC50 was more than 1000 nM.

With `Cn1ccc2c(Nc3nc(N[C@@H](C(N)=O)C(C)(C)C)nnc3C(N)=O)cccc21` [Example 93, (R)-3-((1-amino-3,3-dimethyl-1-oxobutan-2-yl)amino)-5-((1-methyl-1H-indol-4-yl)amino)-1,2,4-triazine-6-carboxamide], the IC50 lay within 100 to 1000 nM.

On to `Cn1ccc2c(Nc3nc(N[C@@H]4CCCC(F)(F)[C@@H]4N)nnc3C(N)=O)cccc21` [Example 94, 3-(((1R,2R)-2-amino-3,3-difluorocyclohexyl)amino)-5-((1-methyl-1H-indol-4-yl)amino)-1,2,4-triazine-6-carboxamide], for which the IC50 is 1 to 10 nM.

As for `NC(=O)c1nnc(N[C@@H]2CCOC[C@@H]2N)nc1Nc1ccccc1` [Example 95, 3-(((3R,4R)-3-aminotetrahydro-2H-pyran-4-yl)amino)-5-(phenylamino)-1,2,4-triazine-6-carboxamide], the IC50 is 10 to 100 nM.

Consider `NC(=O)c1nnc(N[C@@H]2CCCC(F)(F)[C@@H]2N)nc1Nc1ccccc1` [Example 96, 3-(((1R,2R)-2-amino-3,3-difluorocyclohexyl)amino)-5-(phenylamino)-1,2,4-triazine-6-carboxamide], for which the IC50 was in the range of 10 to 100 nM.

As for `NC(=O)c1nnc(N[C@@H]2CCCC[C@@H]2N)nc1Nc1ccc(-n2nccn2)cc1` [Example 97, 5-((4-(2H-1,2,3-triazol-2-yl)phenyl)amino)-3-(((1R,2S)-2-aminocyclohexyl)amino)-1,2,4-triazine-6-carboxamide], the IC50 was 10 to 100 nM.

In the case of `CC[C@@H](Nc1nnc(C(N)=O)c(Nc2ccc(-n3nccn3)cc2)n1)C(N)=O` [Example 98, (R)-5-((4-(2H-1,2,3-triazol-2-yl)phenyl)amino)-3-((1-amino-1-oxobutan-2-yl)amino)-1,2,4-triazine-6-carboxamide], the IC50 is 10 to 100 nM.

For the compound `CC[C@@H](Nc1nnc(C(N)=O)c(Nc2ccccc2)n1)C(N)=O` [Example 99, (R)-3-((1-amino-1-oxobutan-2-yl)amino)-5-(phenylamino)-1,2,4-triazine-6-carboxamide], the IC50 lay in the range of 100 to 1000 nM.

Take `NC(=O)c1nnc(N[C@@H]2CCCC[C@@H]2N)nc1Nc1cccnc1` [Example 100, 3-(((1R,2S)-2-aminocyclohexyl)amino)-5-(pyridin-3-ylamino)-1,2,4-triazine-6-carboxamide]: the IC50 fell in the range of 10 to 100 nM.

On to `Cc1cc(Nc2nc(N[C@@H]3CCCC[C@@H]3N)nnc2C(N)=O)sn1` [Example 101, 3-(((1R,2S)-2-aminocyclohexyl)amino)-5-((3-methylisothiazol-5-yl)amino)-1,2,4-triazine-6-carboxamide], for which the concentration for half-maximal inhibition (IC50) is 10 to 100 nM.

Take `CC[C@@H](Nc1nnc(C(N)=O)c(Nc2ccc3cc[nH]c3c2)n1)C(N)=O` [Example 102, (R)-5-((1H-indol-6-yl)amino)-3-((1-amino-1-oxobutan-2-yl)amino)-1,2,4-triazine-6-carboxamide]: the 50% inhibitory concentration (IC50) is 1 to 10 nM.

`CC(C)C[C@@H](Nc1nnc(C(N)=O)c(Nc2ccc3cc[nH]c3c2)n1)C(N)=O` [Example 103, (R)-5-((1H-indol-6-yl)amino)-3-((1-amino-4-methyl-1-oxopentan-2-yl)amino)-1,2,4-triazine-6-carboxamide]: the IC50 was in the range of 1 to 10 nM.

As for `Cn1ncc2c(Nc3nc(N[C@@H]4CCCC[C@@H]4N)nnc3C(N)=O)ccnc21` [Example 104, 3-(((1R,2S)-2-aminocyclohexyl)amino)-5-((1-methyl-1H-pyrazolo[3,4-b]pyridin-4-yl)amino)-1,2,4-triazine-6-carboxamide], the IC50 was 10 to 100 nM.

Consider `Cn1ncc2c(Nc3nc(N[C@@H]4CCCC[C@@H]4N)nnc3C(N)=O)cccc21` [Example 105, 3-(((1R,2S)-2-aminocyclohexyl)amino)-5-((1-methyl-1H-indazol-4-yl)amino)-1,2,4-triazine-6-carboxamide], for which the IC50 lay in the range of 1 to 10 nM.

Take `NC(=O)c1nnc(N[C@@H]2CCCC[C@@H]2N)nc1Nc1ccc(-n2cncn2)cc1` [Example 106, 5-((4-(1H-1,2,4-triazol-1-yl)phenyl)amino)-3-(((1R,2S)-2-aminocyclohexyl)amino)-1,2,4-triazine-6-carboxamide]: the IC50 lay in the range of 10 to 100 nM.

Regarding `CC[C@@H](Nc1nnc(C(N)=O)c(Nc2cccc3c2cnn3C)n1)C(N)=O` [Example 107, (R)-3-((1-amino-1-oxobutan-2-yl)amino)-5-((1-methyl-1H-indazol-4-yl)amino)-1,2,4-triazine-6-carboxamide], the IC50 was in the range of 10 to 100 nM.

As for `CC(C)C[C@@H](Nc1nnc(C(N)=O)c(Nc2cccc3c2cnn3C)n1)C(N)=O` [Example 108, (R)-3-((1-amino-4-methyl-1-oxopentan-2-yl)amino)-5-((1-methyl-1H-indazol-4-yl)amino)-1,2,4-triazine-6-carboxamide], the IC50 fell in the range of 10 to 100 nM.

Take `Cn1ncc2cc(Nc3nc(N[C@@H]4CCCC[C@@H]4N)nnc3C(N)=O)ccc21` [Example 109, 3-(((1R,2S)-2-aminocyclohexyl)amino)-5-((1-methyl-1H-indazol-5-yl)amino)-1,2,4-triazine-6-carboxamide]: the IC50 lay in the range of 1 to 10 nM.

Take `CC[C@@H](Nc1nnc(C(N)=O)c(Nc2ccc3c(cnn3C)c2)n1)C(N)=O` [Example 110, (R)-3-((1-amino-1-oxobutan-2-yl)amino)-5-((1-methyl-1H-indazol-5-yl)amino)-1,2,4-triazine-6-carboxamide]: the IC50 was 10 to 100 nM.

In the case of `CC(C)C[C@@H](Nc1nnc(C(N)=O)c(Nc2ccc3c(cnn3C)c2)n1)C(N)=O` [Example 111, (R)-3-((1-amino-4-methyl-1-oxopentan-2-yl)amino)-5-((1-methyl-1H-indazol-5-yl)amino)-1,2,4-triazine-6-carboxamide], the IC50 fell in the range of 1 to 10 nM.

For the compound `CC[C@@H](Nc1nnc(C(N)=O)c(Nc2ccc(OC)c(C(F)(F)F)c2)n1)C(N)=O` [Example 112, (R)-3-((1-amino-1-oxobutan-2-yl)amino)-5-((4-methoxy-3-(trifluoromethyl)phenyl)amino)-1,2,4-triazine-6-carboxamide], the IC50 was 100 to 1000 nM.

With `COc1ccc(Nc2nc(N[C@H](CC(C)C)C(N)=O)nnc2C(N)=O)cc1C(F)(F)F` [Example 113, (R)-3-((1-amino-4-methyl-1-oxopentan-2-yl)amino)-5-((4-methoxy-3-(trifluoromethyl)phenyl)amino)-1,2,4-triazine-6-carboxamide], the IC50 lay within 10 to 100 nM.

As to `COc1ccc(Nc2nc(N[C@@H]3CCCC[C@@H]3N)nnc2C(N)=O)cc1C(F)(F)F` [Example 114, 3-(((1R,2S)-2-aminocyclohexyl)amino)-5-((4-methoxy-3-(trifluoromethyl)phenyl)amino)-1,2,4-triazine-6-carboxamide], the IC50 is 1 to 10 nM.

`N#Cc1ccccc1Nc1nc(N[C@@H]2CCCC[C@@H]2N)nnc1C(N)=O` [Example 115, 3-(((1R,2S)-2-aminocyclohexyl)amino)-5-((2-cyanophenyl)amino)-1,2,4-triazine-6-carboxamide]: the IC50 is 100 to 1000 nM.

As for `N#Cc1ccc(Nc2nc(N[C@@H]3CCCC[C@@H]3N)nnc2C(N)=O)cc1F` [Example 116, 3-(((1R,2S)-2-aminocyclohexyl)amino)-5-((4-cyano-3-fluorophenyl)amino)-1,2,4-triazine-6-carboxamide], the IC50 lay within 10 to 100 nM.

In the case of `Cn1ncc2c(Nc3nc(N[C@@H]4CCCC(F)(F)[C@@H]4N)nnc3C(N)=O)cccc21` [Example 117, 3-(((1R,2R)-2-amino-3,3-difluorocyclohexyl)amino)-5-((1-methyl-1H-indazol-4-yl)amino)-1,2,4-triazine-6-carboxamide], the IC50 lay in the range of 10 to 100 nM.
